# In patent publication US20090274638A1, “COSMETIC USE OF A C-GLYCOSIDE DERIVATIVE IN COMBINATION WITH ASCORBIC ACID” (L'OREAL, priority 2006, published 2009):
# Tested on: normal human dermal fibroblasts (NHDF)
# Assay: type I procollagen ELISA assay on culture medium of fibroblasts after 72 hours incubation
# Type: cell-based
# Conditions: for Procollagen 1 / %/blank: NHDF, 72 hours; for Procollagen 1: DMEM containing 10% FCS, ELISA on culture medium; for %/blank: procollagen 1 relative to blank, DMEM 10% FCS
# Protocol: The efficacy of a combination in accordance with the invention is tested by assaying the procollagen 1. To do this, a composition in accordance with the invention is placed in contact with normal human dermal fibroblasts and the whole is left to incubate for 72 hours before assaying.
# The C-glycoside derivative used is C-β-D-xylopyranoside-2-hydroxypropane sold under the name Mexoryl® from Chimex. It is in the form of a solution containing 30% by weight of active material in a 60/40 water/1,2-propanediol mixture.
# • Normal human dermal fibroblasts (NHDF) (R8PF2), obtained from a mammary plasty • Type: pool PF2, used at the 8th passage • Culture: 37° C., 5% CO2 • Test culture medium: DMEM (Invitrogen 21969035) • L-glutamine 2 mM (Invitrogen 25030024) • Penicillin 50 IU/ml streptomycin 50 μg/ml (Invitrogen 15070063) • 10% Foetal calf serum (v/v, Invitrogen 10270098).
# The normal human dermal fibroblasts (R8PF2) are inoculated in whole DMEM medium and preincubated for 24 hours at 37° C. and 5% CO2. At 80% confluence, the culture medium is replaced with DMEM test medium containing 10% FCS with or without (blank) the products or mixtures to be tested or the reference (TGF-β). The cells are then incubated at 37° C. for 72 hours. Each experimental condition was performed in triplicate.
# After incubation, the culture media are harvested and the type I procollagen assay is performed on a sample of medium using a specific ELISA assay kit and according to the supplier's instructions (Procollagen Type I C-Peptide EIA Kit, Bio-Whittaker MK101). An MTT viability test is performed on the cell lawns.
smiles,measurement,setting,value
"O=C1O[C@H]([C@@H](O)CO)C(O)=C1O [Ascorbic acid, ascorbic acid]",Procollagen 1,0.01 mg/ml,17052 ng/mL
same,%/blank,0.01 mg/ml,887%
same,synthesis of procollagen 1 by the fibroblasts (in words),"tested at 0.01 mg/ml, culturing for 72 hours in DMEM medium containing 10% FCS",significantly increases
"CC(O)C[C@@H]1OC[C@@H](O)[C@H](O)[C@H]1O (stereo partly drawn) [C-Glycoside derivative, C-β-D-xylopyranoside-2-hydroxypropane]",Procollagen 1,1 mM,1838 ng/mL
same,%/blank,1 mM,96%
same,amount of procollagen 1 synthesized by the fibroblasts (in words),"tested at 1 mm, culturing for 72 hours in DMEM medium containing 10% FCS",does not significantly modify
